Results taken from ChEMBL document CHEMBL6121063, “Identification of a Potent and Selective CDK9 Degrader as a Targeted Therapeutic Option for the Treatment of Small-Cell Lung Cancer” (J Med Chem, 2025).
In brackets after ≈: the same amount, converted by molar mass.

Columns and labels:
[1] = target: T1, Protein cereblon/Cyclin-dependent kinase 9 (Homo sapiens, UniProt P50750+Q96SW2); assay: PROTAC activity at CRBN/CDK9 in human NCI-H446 cells assessed as induction of CDK9 degradation at 10 nM by Western blot analysis relative to control; format: cell-based
Target sequence in this assay (P50750 whole entry, looked up): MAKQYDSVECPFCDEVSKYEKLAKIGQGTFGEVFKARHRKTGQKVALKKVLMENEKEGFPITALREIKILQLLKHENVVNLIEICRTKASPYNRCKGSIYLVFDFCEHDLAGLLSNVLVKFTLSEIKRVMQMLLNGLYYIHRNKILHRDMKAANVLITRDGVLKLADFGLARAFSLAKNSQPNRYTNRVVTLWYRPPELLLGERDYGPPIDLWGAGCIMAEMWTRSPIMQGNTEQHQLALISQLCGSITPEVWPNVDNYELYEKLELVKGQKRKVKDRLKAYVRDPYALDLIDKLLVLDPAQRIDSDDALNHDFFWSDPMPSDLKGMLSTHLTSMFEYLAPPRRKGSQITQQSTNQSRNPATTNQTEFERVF
Target sequence in this assay (Q96SW2 whole entry, looked up): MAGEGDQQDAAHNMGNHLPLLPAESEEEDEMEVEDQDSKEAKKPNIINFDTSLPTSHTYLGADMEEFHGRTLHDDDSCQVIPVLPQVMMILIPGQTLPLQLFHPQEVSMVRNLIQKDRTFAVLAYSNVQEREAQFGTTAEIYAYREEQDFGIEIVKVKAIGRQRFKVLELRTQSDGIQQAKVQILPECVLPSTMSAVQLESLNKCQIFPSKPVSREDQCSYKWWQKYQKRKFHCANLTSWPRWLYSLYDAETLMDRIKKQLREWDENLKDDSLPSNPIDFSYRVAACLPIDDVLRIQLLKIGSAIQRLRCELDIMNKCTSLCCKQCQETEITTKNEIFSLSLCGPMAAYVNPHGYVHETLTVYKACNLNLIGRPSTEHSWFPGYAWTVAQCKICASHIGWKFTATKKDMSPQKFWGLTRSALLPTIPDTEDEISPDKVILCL

[2] = target: T1, Protein cereblon/Cyclin-dependent kinase 9; assay: PROTAC activity at CRBN/CDK9 in human NCI-H69 cells assessed as induction of CDK9 degradation at 10 nM by Western blot analysis relative to control; format: cell-based
Target sequence in this assay (P50750 whole entry, looked up): as the sequence (P50750 whole entry, looked up) above
Target sequence in this assay (Q96SW2 whole entry, looked up): as the sequence (Q96SW2 whole entry, looked up) above

NCI-H446 = assay: Antiproliferative activity against human NCI-H446 cells assessed as inhibition of cell growth incubated for 72 hrs by CCK8 assay; format: functional, cell-based; conditions: NCI-H446, 72 h
NCI-H69 = assay: Antiproliferative activity against human NCI-H69 cells assessed as inhibition of cell growth incubated for 72 hrs by CCK8 assay; format: functional, cell-based; conditions: NCI-H69, 72 h
[3] = target: T1, Protein cereblon/Cyclin-dependent kinase 9; assay: PROTAC activity at CRBN/CDK9 in human NCI-H69 cells assessed as induction of CDK9 degradation incubated for 8 hrs by Western blot analysis; format: cell-based
Target sequence in this assay (P50750 whole entry): as the sequence (P50750 whole entry, looked up) above
Target sequence in this assay (Q96SW2 whole entry): as the sequence (Q96SW2 whole entry, looked up) above

[4] = Metabolic stability in human liver microsomes assessed as half-life; format: ADME, Microsome; conditions: liver microsomes
[5] = Metabolic stability in human liver microsomes assessed as intrinsic clearance; format: ADME, Microsome; conditions: liver microsomes, read-out: CLH
[6] = Metabolic stability in mouse liver microsomes assessed as intrinsic clearance; format: ADME, Microsome; conditions: liver microsomes, read-out: CLH
[7] = Metabolic stability in mouse liver microsomes assessed as parent compound remaining measured after 60 mins; format: ADME, Microsome; conditions: read-out: Stability
[8] = Metabolic stability in human liver microsomes assessed as parent compound remaining measured after 60 mins; format: ADME, Microsome; conditions: read-out: Stability
[9] = Metabolic stability in mouse liver microsomes assessed as half-life; format: ADME, Microsome; conditions: liver microsomes
[10] = Kinetic solubility of compound in FeSSIF buffer incubated for 2 hrs by LC-MS/MS analysis; format: physicochemical; conditions: read-out: Kinetic_solubility
[11] = Apparent permeability across basolateral to apical side in human Caco-2 cells at 2 uM measured after 60 mins by HPLC analysis; format: ADME, cell-based
[12] = Efflux ratio of apparent permeability across basolateral to apical over apical to basolateral side in human Caco-2 cells at 2 uM measured after 60 mins by HPLC analysis; format: ADME, cell-based
[13] = Apparent permeability across apical to basolateral side in human Caco-2 cells at 2 uM measured after 60 mins by HPLC analysis; format: ADME, cell-based

Row | Structure (SMILES) | Activity [1] | Activity [2] | IC50 (NCI-H446) | IC50 (NCI-H69) | DC50 [3] | half-life [4] | microsomal CLint [5] | microsomal CLint [6] | remaining at 1 h [7] | remaining at 1 h [8] | half-life [9] | solubility kinetic at 2 h [10] | Papp B→A at 1 h, 2 µM [11] | efflux ratio at 1 h, 2 µM [12] | Papp A→B at 1 h, 2 µM [13]
1 | O=C1CCC(N2C(=O)c3cccc(NCCCCCCC(=O)N4CCC(NC(=O)c5n[nH]cc5NC(=O)c5c(Cl)cccc5Cl)CC4)c3C2=O)C(=O)N1 (stereo not drawn) | 11.2% | 0.132% | > 1 µM | > 1 µM |  |  |  |  |  |  |  |  |  |  | 
2 | O=C(CNc1cccc2c1C(=O)N(C1CCC(=O)NC1=O)C2=O)NCCCCCCCCCCC(=O)N1CCC(NC(=O)c2n[nH]cc2NC(=O)c2c(Cl)cccc2Cl)CC1 (stereo not drawn) | 27.9% | 21.8% | 0.148 µM | 0.161 µM |  |  |  |  |  |  |  |  |  |  | 
3 | O=C1CCC(N2C(=O)c3ccc(N4CCN(CC(=O)N5CCC(NC(=O)c6n[nH]cc6NC(=O)c6c(Cl)cccc6Cl)CC5)CC4)cc3C2=O)C(=O)N1 (stereo not drawn) | 30.9% | 45.5% | 0.349 µM | 0.726 µM |  |  |  |  |  |  |  |  |  |  | 
4 | O=C1CCC(N2C(=O)c3ccc(N4CCC(OC(=O)CN5CCC(NC(=O)c6n[nH]cc6NC(=O)c6c(Cl)cccc6Cl)CC5)CC4)cc3C2=O)C(=O)N1 (stereo not drawn) | 18.6% | 25.2% | > 1 µM | 0.268 µM |  |  |  |  |  |  |  |  |  |  | 
5 | O=C1CCC(N2C(=O)c3cccc(NCCCCCC(=O)N4CCC(NC(=O)c5n[nH]cc5NC(=O)c5c(Cl)cccc5Cl)CC4)c3C2=O)C(=O)N1 (stereo not drawn) | 27.1% | 17.1% | > 1 µM | > 1 µM |  |  |  |  |  |  |  |  |  |  | 
6 | O=C1CCC(N2C(=O)c3cccc(NCCCCC(=O)N4CCC(NC(=O)c5n[nH]cc5NC(=O)c5c(Cl)cccc5Cl)CC4)c3C2=O)C(=O)N1 (stereo not drawn) | 9.92% | 3.91% | 0.772 µM | > 1 µM |  |  |  |  |  |  |  |  |  |  | 
7 | Cl.O=C1CCC(Nc2cccc(N3CCN(CC4CCN(CC(=O)N5CCC(NC(=O)c6n[nH]cc6NC(=O)c6c(Cl)cccc6Cl)CC5)CC4)CC3)c2)C(=O)N1 (stereo not drawn) |  |  |  |  |  |  |  |  |  |  |  | 290 µM |  |  | 
8 | CC(C)NCC(O)COc1cccc2ccccc12 (stereo not drawn) [PROPRANOLOL] |  |  |  |  |  |  |  |  |  |  |  |  | 15.4 ×10⁻⁶ cm/s | 1.6 | 9.64 ×10⁻⁶ cm/s

Further molecules by falling IC50 (NCI-H446), results first:

Row | Activity [1] | Activity [2] | IC50 (NCI-H446) | IC50 (NCI-H69) | DC50 [3] | half-life [4] | microsomal CLint [5] | microsomal CLint [6] | remaining at 1 h [7] | remaining at 1 h [8] | half-life [9] | solubility kinetic at 2 h [10] | Papp B→A at 1 h, 2 µM [11] | efflux ratio at 1 h, 2 µM [12] | Papp A→B at 1 h, 2 µM [13] | Structure (SMILES)
9 | 74.1% | 88.9% | 0.0353 µM | 0.011 µM | 0.00567 µM | 0.98 h | 26 µL/min/mg | 10.2 µL/min/mg | 72% | 64.7% | 2.27 h |  |  |  |  | O=C1CCC(Nc2ccc(N3CCN(CC4CCN(CC(=O)N5CCC(NC(=O)c6n[nH]cc6NC(=O)c6c(Cl)cccc6Cl)CC5)CC4)CC3)cc2)C(=O)N1 (stereo not drawn)
10 | 49.9% | 51.5% | 0.0181 µM | 0.00575 µM |  |  |  |  |  |  |  |  |  |  |  | O=C1CCC(N2C(=O)c3ccc(N4CCN(C(=O)CN5CCC(CN6CCC(NC(=O)c7n[nH]cc7NC(=O)c7c(Cl)cccc7Cl)CC6)CC5)CC4)cc3C2=O)C(=O)N1 (stereo not drawn)
11 | 51.9% | 44.2% | 0.0179 µM | 0.0538 µM |  |  |  |  |  |  |  |  |  |  |  | O=C1CCC(N2C(=O)c3ccc(N4CCN(C(=O)CN5CCC(NC(=O)c6n[nH]cc6NC(=O)c6c(Cl)cccc6Cl)CC5)CC4)cc3C2=O)C(=O)N1 (stereo not drawn)
12 | 83.9% | 89.1% | 0.0026 µM | 0.0013 µM | 0.0038 µM | 0.507 h | 46 µL/min/mg | 11 µL/min/mg | 71.9% | 24.3% | 2.1 h | 9.08 µM (≈ 7.83 µg/mL) | 5.27 ×10⁻⁶ cm/s | 16.2 | 0.326 ×10⁻⁶ cm/s | O=C1CCC(N2C(=O)c3ccc(N4CCN(CC5CCN(CC(=O)N6CCC(NC(=O)c7n[nH]cc7NC(=O)c7c(Cl)cccc7Cl)CC6)CC5)CC4)cc3C2=O)C(=O)N1 (stereo not drawn)
13 | 81.3% | 86.1% | 0.00201 µM | 0.00482 µM | 0.00897 µM | 0.0792 h | 292 µL/min/mg | 16.2 µL/min/mg | 61.1% | 1.2% | 1.43 h |  |  |  |  | O=C1CCC(N2C(=O)c3ccc(N4CCN(CC(=O)N5CCC(CN6CCC(NC(=O)c7n[nH]cc7NC(=O)c7c(Cl)cccc7Cl)CC6)CC5)CC4)cc3C2=O)C(=O)N1 (stereo not drawn)
